According to patent EP0389368B1, “New derivatives of 6-(1-piperazinyl) 2,5-pyridine diamine N,N,N',N'-substituted, procedure for their production and intermediates, their use as medicines and pharmaceutical preparations containing them” (priority 1989, dated 1990):

Assays:
péroxydation lipidique [1] = assay: MDA formation test, non-enzymatic lipid peroxidation triggered by ferrous sulfate in rat brain homogenates; format: biochemical, rat S.D; conditions: rat brain homogenate, FeSO4, 60 min 37°C
Description: (§1) L'activité antioxydante est recherchée, in vitro, par le test de formation de la malonyldialdéhyde (MDA) qui mesure la péroxydation lipidique déclenchée : soit a) de façon non enzymatique par le sulfate ferreux, dans • 1) des homogénats de cerveau ou • 2) des microsomes hépatiques de rat soit b) de façon enzymatique par NADPH et le tétrachlorure de carbone, dans des microsomes hépatiques de rat. 1.1 : La formation de MDA est mesurée sur des homogénats au 1/10^e (V/V) de cerveaux de rat S.D (200 g) préparés dans un tampon de Krebs pH 7,4 selon les conditions décrites dans J. Biol. Chem. 262 (1987) 10438-10440. On incube 1 ml d'homogénat pendant 60 mn à 37°C en présence de 25 microlitres d'éthanol contenant ou non le produit à tester, après addition de 25 microlitres de solution de sulfate ferreux préparée extemporanément dans de l'eau dégazée à l'argon (200 micromoles final). On prélève 0,25 ml de mélange incubé et ajoute 1,5 ml d'acide phosphorique à 1 %, 0,25 ml de solution 200 micromoles de déféroxamine (Desféral^R Ciba Geigy) dans l'eau, 10 microlitres de tert-butylhydroxytoluène (BHT) à 8,7 mg/ml dans l'éthanol et 0,5 ml d'acide thiobarbiturique (TBA) à 0,6 % dans l'eau. On chauffe le mélange à 100°C pendant 45 mn, refroidit, ajoute 4 ml de n-butanol, centrifuge pendant 15 mn à 4000 t/mn puis lit la DO à 535 nm de la fraction surnageante. On incube dans les mêmes conditions les blancs de réaction en absence de Fe++. On calcule le pourcentage d'inhibition : pourcentage d'inhibition =(DO en présence de produit)/(DO en absence de produit) [formula]

péroxydation lipidique [2] = assay: MDA formation test, non-enzymatic lipid peroxidation triggered by ferrous sulfate/ascorbate in rat liver microsomes; format: biochemical, rat S.D; conditions: FeSO4/ascorbate, 15 min 37°C
Description: as §1, with “[formula] Résultats :” for “[formula]”
1.2 : La formation de MDA est mesurée sur des microsomes hépatiques de rat S.D (200 g) préparés à partir de la fraction sédimentée à 100.000 g d'un homogénat de foie dans un tampon sucrose dont on utilise la fraction restant insoluble à 100.000 g dans un tampon de pyrophosphate de sodium 100 mM pH 7,4 et que l'on homogénéise dans un tampon phosphate de sodium 100 mM pH 7,4 à 20 % de glycérol, puis que l'on conserve à -80°C. On incube les microsomes pendant 15 mn à 37°C dans 1 ml contenant du tampon Tris-HCl 35 mM, KCl 0,1 M pH 7,4, 1 mg de protéine microsomale, 5 microlitres d'éthanol renfermant ou non le produit à tester, 250 microlitres de solution d'ascorbate dans le tampon Tris (0,5 mM final), après l'addition de 250 microlitres de sulfate ferreux préparée extemporanément dans le tampon Tris (6 micromoles final). On arrête la réaction par addition de 2 ml d'une solution d'acide trichloracétique 1 M dans l'acide chlorhydrique 0,25 M contenant 0,4 % d'acide thiobarbiturique. On chauffe le mélange à 85°C pendant 25 mn, refroidit, centrifuge pendant 15 mn à 3500 t/mn puis lit la DO à 535 nm de la fraction surnageante. On effectue en même temps les blancs de réaction en absence de Fe++. On calcule le pourcentage d'inhibition comme précédemment.

péroxydation lipidique [3] = assay: MDA formation test, enzymatic lipid peroxidation triggered by NADPH and carbon tetrachloride in liver microsomes of phenobarbital-pretreated rats; format: biochemical; conditions: rat liver microsomes (phenobarbital-pretreated), NADPH + CCl4, 15 min 37°C
Description: as §1, with “[formula] Résultats :” for “[formula]”
2 : La formation de MDA est mesurée sur des microsomes hépatiques de rats prétraités au phénobarbital (80 mg/kg par 3 injections i.p), préparés comme décrit précédemment. On incube les microsomes pendant 15 mn à 37°C dans 1 ml contenant du tampon phosphate 0,1 M pH 7,4, 1 mg de protéine microsomale, 5 microlitres d'éthanol renfermant ou non le produit à tester, 5 microlitres de tétrachlorure de carbone (5,5 mM final) après l'addition de 50 microlitres de solution de NADPH dans le tampon phosphate (1 mM final). On arrête la réaction puis effectue le dosage selon les conditions décrites précédemment.

[4] = tested on: oedème plantaire provoqué par l'acide arachidonique; assay: Arachidonic acid-induced paw oedema test (anti-oedema activity); format: in vivo, rats mâles EOPS de souche Sprague Dawley; conditions: rat; for Variation de volume de la patte 1 heure après AA: ** p < 0,01 (Dunnett)
Description: L'activité anti-inflammatoire est évaluée in vivo par mesure de l'activité anti-oedémateuse à l'aide du test de l'oedème plantaire provoqué par l'acide arachidonique décrit par M.J. Di Martino et al. (Agents and Actions 1987 21 3/4 303).
Les animaux d'expérimentation sont des rats mâles EOPS de souche Sprague Dawley pesant 150-170 g (Iffa Credo).
Ce test est pratiqué sur des groupes de 8 rats mâles pesant 130 à 150 g à jeun depuis 16 heures. L'acide arachidonique est injecté sous l'aponévrose plantaire d'une patte postérieure à la dose de 0,2 mg sous un volume de 0,1 ml. Le volume de la patte est mesuré à l'aide d'un pléthysmomètre à eau, avant et 1 heure après l'injection de l'acide arachidonique. La différence entre ces deux volumes représente le degré d'inflammation. Les animaux sont traités par les produits à étudier ou le véhicule seul en même temps que l'injection de l'acide arachidonique.
Les produits étudiés ont été administrés par voie orale sous un volume de 4 ml/kg après avoir été mis en suspension dans la méthylcellulose à 0,5%. Toutes les expériences ont été réalisées avec comme produit de référence la dexaméthasone à la dose de 0,5 mg/kg par voie orale.
Les résultats sont exprimés en variation de volume de la patte 1 heure après l'injection d'acide arachidonique (AA), en absence ou en présence du produit à tester administré à différentes doses.
L'interprétation statistique des résultats a été effectuée selon le test de Dunnett (* p < 0,05 - ** p < 0,01) ou selon le test de Mann Whitney (° p < 0,05 - °° p < 0,01).
Pour chaque dose administrée par voie orale, on calcule le pourcentage d'inhibition de l'oedème par le produit testé, par rapport au témoin.

SMILES	pourcentage d'inhibition (péroxydation lipidique [1]; 1.10^-4M, 100 µM)	pourcentage d'inhibition (péroxydation lipidique [1]; 1.10^-5M, 10 µM)	pourcentage d'inhibition (péroxydation lipidique [1]; 5.10^-4M, 500 µM)	pourcentage d'inhibition (péroxydation lipidique [2]; 1.10^-5M, 10 µM)	pourcentage d'inhibition (péroxydation lipidique [2]; 1.10^-6M, 1 µM)	pourcentage d'inhibition (péroxydation lipidique [2]; 5.10^-6M, 5 µM)	pourcentage d'inhibition (péroxydation lipidique [3]; 1.10^-5M, 10 µM)	pourcentage d'inhibition (péroxydation lipidique [3]; 1.10^-6M, 1 µM)	pourcentage d'inhibition (péroxydation lipidique [3]; 5.10^-6M, 5 µM)	Variation de volume de la patte 1 heure après AA ([4]; dose 20 mg/kg oral)	Variation de volume de la patte 1 heure après AA ([4]; dose 0,5 mg/kg oral)	Variation de volume de la patte 1 heure après AA ([4]; dose 1 mg/kg oral)	activité anti-inflammatoire ([4]; result in words, from the dose of 0,5 mg/kg oral)
CCN(CC)c1ccc(N(CC)CC)c(N2CCNCC2)n1 [Produit de l'ex. 1, N,N,N′,N′-tétraéthyl 6-(1-pipérazinyl) 2,5-pyridine diamine]	67,4 ± 8,6 pourcentage	60,3 ± 9,1 pourcentage	74,2 ± 3,8 pourcentage	99,4 pourcentage	44,0 pourcentage	99,4 pourcentage	96 ± 1 pourcentage	43 ± 3 pourcentage	93 ± 0,2 pourcentage	0,33 ± 0,06** cm3	–	–	–
CCN(CC)c1ccc(N(CC)CC)c(N2CCN(CC(=O)[C@H]3[C@H](C)C[C@H]4[C@@H]5CCC6=CC(=O)C=C[C@]6(C)C5=CC[C@@]43C)CC2)n1 [Produit de l'ex. 2, 21-[4-[3,6-bis(diéthylamino) 2-pyridyl] 1-pipérazinyl] 16alpha-méthyl pregna-1,4,9(11)-triène-3,20-dione]	55,6 ± 1,3 pourcentage	63,8 ± 4,3 pourcentage	60,4 ± 4,4 pourcentage	99,8 pourcentage	42,0 ± 5 pourcentage	99,5 pourcentage	91 ± 1 pourcentage	49 ± 1,5 pourcentage	88 ± 1 pourcentage	–	0,32 ± 0,04** cm3	0,32 ± 0,01** cm3	forte activité
